This is an account of results in paper PMC8123127, “Structural Bases for the Synergistic Inhibition of Human Thymidylate Synthase and Ovarian Cancer Cell Growth by Drug Combinations” (Cancers, 2021).

Where two headings read alike, the source gives them in different places.

What all share (assay): cells
For assay [1], the system named is 2008 cells. Also noted: species or system C13*, A2780, A2780/CP; growth inhibition of human ovarian cancer cell lines after 72 h treatment, cell counts. As to conditions: 72 h. How it is done:
(§1) The drug concentrations used in the combinations were based on the IC50s. These are reported in Table S3 of the Supplementary Information. The effects of binary combinations were determined with both drug concentrations lower than their IC50s and were characterized in terms of the synergism quotient. […] With 5 μM 5FU alone, cell growth inhibitions were 24.7, 21.2, 28.3, and 27.1% for 2008, C13*, A2780, and A2780/CP, respectively. […] The bars represent the mean of duplicate cell counts on three separate experiments. A quotient > 1 indicates synergism, =1, additivity <1 antagonism. Error bars represent SEM.

Assay [2] deals with C13* cells. Also noted: species or system 2008, A2780, A2780/CP; growth inhibition of human ovarian cancer cell lines after 72 h treatment, cell counts. The settings on record: Homo sapiens, C13, 72 h. How it is done: as §1
Assay [3] concerns A2780/CP cells. Also noted: species or system 2008, C13*; growth inhibition of human ovarian cancer cell lines after 72 h treatment, cell counts. As to conditions: A2780C/P, 72 h. The procedure: as §1
Assay [4] concerns A2780 cells. Further details: species or system 2008, C13*, A2780/CP; growth inhibition of human ovarian cancer cell lines after 72 h treatment, cell counts. As to conditions: Homo sapiens, A2780, 72 h. How it is done:
as §1

With `O=c1[nH]cc(F)c(=O)[nH]1` [5-FU, 5-fluorouracil], the IC50 – broadly, the concentration needed to halve the response being measured – in assay [1] (read-out: 5-FU (µM) IC50) was 6.3 ± 0.4 µM; in assay [2] (read-out: 5-FU (µM) IC50), 12.4 ± 0.8 µM; in assay [3] (read-out: 5-FU (µM) IC50) it was 12.9 ± 1.1 µM; in assay [4] (read-out: 5-FU (µM) IC50), 9.5 ± 0.8 µM.

In the case of `Cc1nc(=O)c2cc(CN(C)c3ccc(C(=O)N[C@@H](CCC(=O)O)C(=O)O)s3)ccc2[nH]1` [RTX, N-[(5-{methyl[(2-methyl-4-oxo-1,4-dihydroquinazolin-6-yl)methyl]amino}-2-thienyl)carbonyl]-L-glutamic acid], the concentration for half-maximal inhibition (IC50) in assay [1] (read-out: RTX (nM) IC50) was 0.0095 ± 0.001 µM; in assay [2] (read-out: RTX (nM) IC50), 0.0262 ± 0.003 µM; in assay [3] (read-out: RTX (nM) IC50), 0.0311 ± 0.0029 µM; in assay [4] (read-out: RTX (nM) IC50) it was 0.0086 ± 0.0012 µM.
